Measured values published in patent US10420831B2, “Inactivation of viruses by delipidation” (priority 2016, dated 2019).
Where two headings read alike, the source gives them in different places. Marks after values point to notes of the source that are not given here.

Key:
[1] = system: human influenza virus H1N1 A/WSN/33 strain; experiment: Hemagglutination (HA) activity of treated IFV with chicken red blood cells; conditions: 50 mM MBCD
Experimental: Hemagglutination (HA) activity is determined as follows. Freshly isolated chicken blood is washed three times with PBS, and the red blood cells (RBC) are resuspended in PBS at a concentration of 1%. Virus dilutions (50 μL) are made in PBS and mixed with 50 μL of the RBC suspension. The mixture is added to individual wells in a 96-well plate and the RBC are allowed to settle for 45 minutes. The wells are judged to be HA negative (i.e. no agglutination of RBC) if a dot or pellet of RBC is present, and a well is judged to be positive if a smooth suspension of RBC is present.
In addition to MBCD, another lipid solvent, diisopropyl ether (DIPE) is used to delipidate IFV. […] After a brief centrifugation at 2,000×g for 3 minutes, visible solvent is removed, and the aqueous materials are left to dry in a fume hood for 20 minutes. The samples are then centrifuged at 200,000×g for 30 minutes to recover virus particles.

[2] = system: human influenza virus H1N1 A/WSN/33 strain; type: cell-based; conditions: 50 mM MBCD
PRRSV-RESP = experiment: Blind passage assay of delipidated PRRSV on Marc-145 cells; type: cell-based; conditions: 100 mM MBCD for 90 minutes
PRRSV strain ND99-14 = experiment: Inactivation kinetics of PRRSV, live virus TCID50 on MARC145 cells; type: cell-based
Experimental: Inactivation kinetics experiments were conducted using PRRSV strain ND99-14, described in application U.S. Ser. No. 62/296,658, filed Feb. 18, 2016. […] Room temperature is between about 20° C. and about 25° C., and optimally between about 22° C. and about 24° C.
[…] […] Aliquots for each time point were stored at 4° C. and −70° C. until further use.
After the 24 hour sample was collected, virus was transferred to a new container. […] […] […] Aliquots for each time point were stored at 4° C. and −70° C. until further use.
Ten-fold serial dilutions (10^−1-10^−9) of mock inactivated and inactivated virus were added to MARC145 cells cultured on 96 well plates. The plates were incubated at 37° C. and 5% CO2 for 96 hours to allow live virus to infect cells. Virus replication was determined by observation of cytopathic effect (CPE) due to virus infection of the MARC145 cells. Each well containing a virus dilution was scored either positive or negative with regards to CPE and the resulting numbers of positive or negatice wells for each dilution were used to determine the TCID50/mL using the Reed-Muench TCID50 calculation. The mock inactivated virus was treated to the same media and temperature conditions as the inactivated virus without the addition of the inactivation agent.

PRRSV strain SD 11-21 = experiment: Inactivation of vaccine virus stock, TCID50 virus titration; type: cell-based; conditions: PRRSV SD 11-21, final 30 mM MBCD in two additions, 48 hours at room temperature

## methyl β-cyclodextrin [MBCD]
[1]; 37° C., 30 minutes
  HA units: 32 HA units
  effect on HA activity (in words): same degree as 2%-8% DIPE
[1]; 45 minutes
  effect on HA activity (in words): not measurably affected
[1]; end-over-end rotation at 37° C. for 45 minutes
  HA units: 32 HA units
[2]; 37° C., 30 minutes, […]
  IFV infectivity reduced, compared to the mock-treatment: 2250 fold
[2]; IFV, 37° C., 30 minutes
  PFU/mL: 4.0 × 10^5 PFU/mL
[2]; IFV, 45 minute treatment
  less infectious in vitro, compared to the mock treatment: over 10,000 fold
[2]; IFV, end-over-end rotation at 37° C. for 45 minutes
  PFU/mL: 1.0 × 10^3 PFU/mL
PRRSV-RESP
  plaques detected by the blind passage assay: no plaques are detected
PRRSV strain ND99-14; 20 mM MBCD, after 15 minutes of incubation
  live virus reduced: approximately 2.5 logs
PRRSV strain ND99-14; 20 mM MBCD, room temperature, hour 0.25, samples stored at 4° C.
  PRRS virus titer: 5.8^a Log10 TCID50/mL
PRRSV strain ND99-14; 20 mM MBCD, room temperature, hour 0.25, samples stored at −70° C.
  PRRS virus titer: 3.3 Log10 TCID50/mL
PRRSV strain ND99-14; 20 mM MBCD, room temperature, hour 4, samples stored at 4° C.
  PRRS virus titer: 5.8 Log10 TCID50/mL
PRRSV strain ND99-14; 20 mM MBCD, room temperature, hour 8, samples stored at 4° C.
  PRRS virus titer: 5.9 Log10 TCID50/mL
PRRSV strain ND99-14; 20 mM MBCD, room temperature, hour 8, samples stored at −70° C.
  PRRS virus titer: 2.8 Log10 TCID50/mL
PRRSV strain ND99-14; 20 mM MBCD, room temperature, hour 12, samples stored at 4° C.
  PRRS virus titer: 5.6 Log10 TCID50/mL
PRRSV strain ND99-14; 20 mM MBCD, room temperature, hour 12, samples stored at −70° C.
  PRRS virus titer: 3.2 Log10 TCID50/mL
PRRSV strain ND99-14; 20 mM MBCD, room temperature, hour 16, samples stored at 4° C.
  PRRS virus titer: 5.6 Log10 TCID50/mL
PRRSV strain ND99-14; 20 mM MBCD, room temperature, hour 16, samples stored at −70° C.
  PRRS virus titer: 3.2 Log10 TCID50/mL
PRRSV strain ND99-14; 20 mM MBCD, room temperature, hour 20, samples stored at 4° C.
  PRRS virus titer: 5.6 Log10 TCID50/mL
PRRSV strain ND99-14; 20 mM MBCD, room temperature, hour 20, samples stored at −70° C.
  PRRS virus titer: 3.4 Log10 TCID50/mL
PRRSV strain ND99-14; 20 mM MBCD, room temperature, hour 24, samples stored at 4° C.
  PRRS virus titer: 5.6 Log10 TCID50/mL
PRRSV strain ND99-14; 20 mM MBCD, room temperature, hour 24, samples stored at −70° C.
  PRRS virus titer: 3.6 Log10 TCID50/mL
PRRSV strain ND99-14; 40 mM MBCD (second 20 mM added at 24 h), hour 30, samples stored at 4° C.
  PRRS virus titer: 0 Log10 TCID50/mL
PRRSV strain ND99-14; 40 mM MBCD (second 20 mM added at 24 h), hour 30, samples stored at −70° C.
  PRRS virus titer: 0 Log10 TCID50/mL
PRRSV strain ND99-14; 40 mM MBCD (second 20 mM added at 24 h), hour 36, samples stored at 4° C.
  PRRS virus titer: 0 Log10 TCID50/mL
PRRSV strain ND99-14; 40 mM MBCD (second 20 mM added at 24 h), hour 36, samples stored at −70° C.
  PRRS virus titer: 0 Log10 TCID50/mL
PRRSV strain ND99-14; 40 mM MBCD (second 20 mM added at 24 h), hour 42, samples stored at 4° C.
  PRRS virus titer: 0 Log10 TCID50/mL
PRRSV strain ND99-14; 40 mM MBCD (second 20 mM added at 24 h), hour 42, samples stored at −70° C.
  PRRS virus titer: 0 Log10 TCID50/mL
PRRSV strain ND99-14; 40 mM MBCD (second 20 mM added at 24 h), hour 48, samples stored at 4° C.
  PRRS virus titer: 0 Log10 TCID50/mL
PRRSV strain ND99-14; 40 mM MBCD (second 20 mM added at 24 h), hour 48, samples stored at −70° C.
  PRRS virus titer: 0 Log10 TCID50/mL
PRRSV strain ND99-14; 40 mM MBCD (second 20 mM added at 24 h), hour 56, samples stored at 4° C.
  PRRS virus titer: 0 Log10 TCID50/mL
PRRSV strain ND99-14; 40 mM MBCD (second 20 mM added at 24 h), hour 56, samples stored at −70° C.
  PRRS virus titer: 0 Log10 TCID50/mL
PRRSV strain ND99-14; 40 mM MBCD (second 20 mM added at 24 h), hour 64, samples stored at 4° C.
  PRRS virus titer: 0 Log10 TCID50/mL
PRRSV strain ND99-14; 40 mM MBCD (second 20 mM added at 24 h), hour 64, samples stored at −70° C.
  PRRS virus titer: 0 Log10 TCID50/mL
PRRSV strain ND99-14; 40 mM MBCD (second 20 mM added at 24 h), hour 72, samples stored at 4° C.
  PRRS virus titer: 0 Log10 TCID50/mL
PRRSV strain ND99-14; 40 mM MBCD (second 20 mM added at 24 h), hour 72, samples stored at −70° C.
  PRRS virus titer: 0 Log10 TCID50/mL
PRRSV strain ND99-14; 40 mM MBCD (second 20 mM added at 24 h), hour 84, samples stored at 4° C.
  PRRS virus titer: 0 Log10 TCID50/mL
PRRSV strain ND99-14; 40 mM MBCD (second 20 mM added at 24 h), hour 84, samples stored at −70° C.
  PRRS virus titer: 0 Log10 TCID50/mL
PRRSV strain ND99-14; 40 mM MBCD (second 20 mM added at 24 h), hour 96, samples stored at 4° C.
  PRRS virus titer: 0 Log10 TCID50/mL
PRRSV strain ND99-14; 40 mM MBCD (second 20 mM added at 24 h), hour 96, samples stored at −70° C.
  PRRS virus titer: 0 Log10 TCID50/mL
PRRSV strain ND99-14; 40 mM MBCD added in a 2 step process
  titer of PRRS virus that could be inactivated: at least 8 log10 TCID50/mL
PRRSV strain ND99-14; second addition of 20 mM MBCD at 24 hours, next time point (30 hours)
  virus level after second addition of MBCD (in words): undetectable levels
PRRSV strain ND99-14; time point samples with detectable live virus
  less virus when stored at −70° C. versus 4° C.: at least 100 fold
PRRSV strain SD 11-21
  live virus in MBCD-inactivated virus solution: no live virus was detected
